Data taken from patent US11173124B2, “Oral delivery of GLP-1 peptide analogs” (MEDIMMUNE LIMITED, priority 2017, dated 2021).
Values after ≈ are worked out from the molar mass of the structure shown. Values joined by “and” are separate entries in the source; they are usually repeats but may differ in a detail not shown here. Identical values can stand only once. Starred links: 1 amine or outer side, 2 acyl side, 3 side chain; linkers in the order of their positions; H or OH if unused. Non-standard residues stand in square brackets, D forms with d. Residues, ends and D or L forms follow the SMILES beside them. Groups on a side chain read outwards from the residue. *: point of attachment. γGlu = O=C(O)[C@H](CCC(=O)[*:2])N[*:1]; αMeF = C[C@](N)(Cc1ccccc1)C(=O)O; αMeK = C[C@](N)(CCCCN)C(=O)O; Lauroyl = CCCCCCCCCCCC(=O)*; αMeS = C[C@](N)(CO)C(=O)O; AEEA = NCCOCCOCC(=O)O; Aib = CC(C)(N)C(=O)O

Assays:
[1] = Canine study, Na CDC:PG ratios, PE amount and MEDI7219 dose in enterically coated tablets (Example 22, Table 29); format: in vivo; conditions: Beagle dogs, oral enterically coated tablet
From the text: The following materials and methods were used for quantitative measurements of GLP-1 peptide analogs in plasma (e.g., rat or dog plasma) in the Examples below. These methods used a SCIEX 6600 TripleTOF mass spectrometer coupled with a Shimadzu ultra-high performance liquid chromatography (UHPLC). The specificity of the method was ensured by the retention time, the selected mass for Single-Reaction-Monitoring (SRM) mode, and the selected fragment mass in MS/MS (MS^2) mode.
The plasma extraction procedure used the following steps: • Samples, standards, and quality controls were incubated until they reached room temperature. They were then incubated at 60° C. for 2 minutes and cooled down to room temperature, vortexed, and spun down. • 70 μL of samples, standards, or quality controls were transferred into a 1 mL 96-well plate. • In each well, 420 uL of Precipitation Solution was added. The plate was sealed and shook for 10 minutes on a plate shaker at 600 rpm. • The plate was centrifuged at 18G, 2500 RFC, 20° C. for 10 minutes. • The plate was carefully removed, and the upper clear supernatant was extracted with a 200 uL multichannel pipette into a new 96-well protein lobind plate. The supernatant was extracted twice for each well, and the supernatants were combined. • The Plate was placed in TurboVap and the extracted supernatant was dried completely with heated (65° C.) Nitrogen gas at 60 Fahrenheit (Fh). • After the plate was completely dry, the plates were covered and incubated at room temperature for at least 30 minutes until the plate returned back to ambient temperature. • 150 μL of Reconstitution solution was added to each well. The plate was covered with a pierceable place seal and shaken at 600 rpm for 10 minutes. • The samples were submitted to the LC-MS/MS on the same day of Preparation
Quantification of the data obtained using the high resolution SCIEX 6600 instrument was then performed as follows: • For the quantification, extracted ion chromatograms (XIC) using 0.2 Da m/z extraction window centered on the accurate mass of each fragment ion were generated. Accurate mass was calculated from the structure of the compound. […] Concentrations of the target analyte in unknown samples were obtained by regression analysis using linear fits of peak areas vs. analyte concentration, weighted 1/(concentration). • The quality of the assay was controlled by the quality control samples. • Either Experiment 1 or Experiment 2 could be used for the quantification of the GLP-1 peptide analogs in high resolution mode.

[2] = Canine study, MEDI7219 enterically coated tablets, enhancer ratios, amounts and peptide doses (Example 15); format: in vivo
Description: The next canine study (Table 22) was executed to confirm the performance of the formulation from the previous study (Example 14, Group 2 formulation, Table 21) at 1, 3 and 10 mg MEDI7219 (SEQ ID NO:2) peptide doses. The second goal was to explore the influence of formulation compositions designed around the Group 2 formulation with varying ratios and amounts of permeation enhancers in an enterically-coated tablet form on bioavailability and pharmacokinetic variability. The following formulation variables were tested: sodium chenodeoxycholate:propyl gallate ratios of 1:1, 1:2, and 1:3; 150, 300 and 450 mg of permeation enhancers at a 1:2 ratio; and 1, 3 and 10 mg peptide doses. All tablets were enterically coated with Eudragit formula dissolving at pH 5.5 and above.

[3] = Third rat ID infusion study, stabilized peptides vs semaglutide (Example 6); conditions: in vivo
Description: The third rat ID infusion study was performed to compare bioavailability of stabilized peptides MEDI7219 (SEQ ID NO:2) and SEQ ID NO:6 with that of semaglutide, H-His-Aib-[…]AEEAc-AEEAc-γ-Glu-17-carboxyheptadecanoyl)-[…]OH (SEQ ID NO:11), (Novo Nordisk), an un-stabilized GLP-1 peptide analog, that only has Aib in its sequence for protection from circulating DPP-IV peptidases, (Table 7 and FIG. 2B).

[4] = Canine study, MEDI7219 multi-unit particulate (MUPS) formulations (Example 16); format: in vivo; conditions: Oral capsule, MUPS 9 mg peptide, 88 mg Na CDC, 190 mg PG
Description: Ten different Multi-unit particulate (MUPS) formulations were prepared (Table 23) using the MEDI7219 (SEQ ID NO:2) peptide and permeation enhancers. The manufacturing process for the MUPS formulation was as follows. A solution of MEDI7219 (SEQ ID NO:2) peptide, sodium chenodeoxycholate and propyl gallate was prepared in water and sprayed onto sugar spheres in a Glatt Mini fluid bed coater. Following drying, sugar spheres coated with peptide and permeation enhancers were coated to result in the compositions described in Table 23.

physchem = test: physchem
From the text: A known amount of the permeation enhancer, the peptide, or both were combined with increasing amounts of buffer until the permeation enhancer and/or the peptide were completely solubilized.

[5] = Canine study, MEDI7219 enterically coated tablets with or without Tris base, fresh or stressed (Example 19, Table 26); format: in vivo; conditions: beagle, dog, plasma, po, Beagle dogs
From the text: The objective was to study influence of MEDI7219 (SEQ ID NO:2) enterically coated tablet formulation composition with or without Tris base on bioperformance Study design and outcomes are provided in Table 26.

[6] = Canine site of absorption study, IntelliCap, SEQ ID NO:3 solution formulations (Example 10); format: in vivo, Beagle dogs; conditions: for bioavailability: Beagle, plasma; for bioavailability / AUC(0-t) / Cmax / Tmax: dog, pH 8, canine; for F: canine; for AUC(0-t) / Cmax / Tmax: in vivo
From the text: The IntelliCap® system, an electronic oral drug delivery and monitoring device, was used to determine regional absorption for solution formulations. In the form of a capsule, the IntelliCap® incorporates a microprocessor, battery, pH sensor, temperature sensor, radio frequency (RF) wireless transceiver, fluid pump, and drug reservoir. The IntelliCap® system can determine the drug's position in the gastrointestinal (GI) tract by a pH monitoring sensor in the capsule, thereby eliminating the need for in vivo imaging. This system was employed to assess the site of absorption of GLP-1 peptide analogs in the GI tract following oral delivery to canines (Beagle dogs). Solution formulations without permeation enhancer excipients were used as intravenous (IV) and subcutaneous (SC) controls in the study. In brief, solution formulations were prepared and transferred to the IntelliCap® capsule which was dosed to canines, wherein the formulation was released at a specific site in the GI tract.

[7] = po, 0.74 mg/kg, PO IntelliCap capsule-proximal small bowel, 8 mg/mL peptide, 10 mg/mL Na CDC, 2 mg/mL Sodium Caprate, PBS pH 8.0
[8] = po, 0.74 mg/kg, PO IntelliCap proximal colon, 8 mg/mL peptide, 10 mg/mL Na CDC, 2 mg/mL Sodium Caprate, PBS pH 8.0
[9] = po, 0.74 mg/kg, PO gavage, 8 mg/mL peptide, 10 mg/mL Na CDC, 2 mg/mL Sodium Caprate, PBS pH 8.0
[10] = iv, 0.01 mg/kg, 0.1 mg/mL peptide in PBS pH 8.0
[11] = sc, 0.01 mg/kg, 0.1 mg/mL peptide in PBS pH 8.0

With `CCCCCCCCCCCC(=O)N[C@@H](CCC(=O)NCCOCCOCC(=O)NCCOCCOCC(=O)NCCCC[C@H](NC(=O)[C@H](C)NC(=O)[C@@H](NC(=O)[C@](C)(Cc1ccccc1)NC(=O)[C@H](CCC(=O)O)NC(=O)[C@](C)(CCCCN)NC(=O)[C@H](C)NC(=O)[C@H](C)NC(=O)[C@H](CCC(=O)O)NC(=O)CNC(=O)[C@H](CCC(=O)O)NC(=O)[C@H](CC(C)C)NC(=O)[C@H](CCCCNC(=O)COCCOCCNC(=O)COCCOCCNC(=O)CC[C@H](NC(=O)CCCCCCCCCCC)C(=O)O)NC(=O)[C@H](CO)NC(=O)[C@](C)(CO)NC(=O)[C@@H](NC(=O)[C@H](CC(=O)O)NC(=O)[C@H](CO)NC(=O)[C@@H](NC(=O)[C@](C)(Cc1ccccc1)NC(=O)[C@H](CO)NC(=O)CNC(=O)[C@H](CCC(=O)O)NC(=O)C(C)(C)NC(=O)[C@@H](N)Cc1c[nH]cn1)[C@@H](C)O)C(C)C)[C@@H](C)CC)C(=O)N[C@H](C(=O)N[C@H](C(=O)N[C@@H](CCC(=O)O)C(=O)NCC(=O)NCC(N)=O)C(C)C)C(C)C)C(=O)O` [MEDI7219, Free-H-[AIB]-EGS-[αMePhe]-TSDV-[αMeSer]-SK[(PEG2)2-γE-Lauroyl]-LEGEAA-[αMeLys]-E-[αMePhe]-IAK[(PEG2)2-γE-Lauroyl]-VVEGG-amide] (H-H[Aib]EGS[αMeF]TSDV[αMeS]SK([AEEA-AEEA-γGlu-Lauroyl])LEGEAA[αMeK]E[αMeF]IAK([AEEA-AEEA-γGlu-Lauroyl])VVEGG-NH2) the F ([1]; 150 mg Na CDC and no PG) was roughly 2%, the F ([1]; 150 mg PE, 1:2 Na CDC:PG ratio) was roughly 6% and the F ([1]; 150 mg PE, 2:1 Na CDC:PG ratio) was roughly 7%. It also gave an F ([1]; 6.5:1 Na CDC:PG ratio (130 mg Na CDC, 20 mg PG)) of roughly 4%, an F ([2]; Intravenous, 0.05 mg/kg) of 100% and an F ([2]; Oral tablet, Group 10: 1 mg peptide, 100 mg Na CDC, 200 mg PG) of 1.11%. It also gave an F ([2]; Oral tablet, Group 11: 1 mg peptide, 100 mg Na CDC, 200 mg PG) of 4.78%, an F ([2]; Oral, Group 2 Enterically Coated tablet: 3 mg peptide, 100 mg Na CDC, 200 mg PG) of 15.5% and an F ([2]; Oral, Group 3 Enterically Coated tablet: 10 mg peptide, 100 mg Na CDC, 200 mg PG) of 7.5%. For the same molecule, the F ([2]; Oral, Group 4 Enterically Coated tablet: 3 mg peptide, 75 mg Na CDC, 225 mg PG) was 7.52%, the F ([2]; Oral, Group 5 Enterically Coated tablet: 3 mg peptide, 50 mg Na CDC, 100 mg PG) was 11.1% and the F ([2]; Oral, Group 6 Enterically Coated tablet: 10 mg peptide, 50 mg Na CDC, 100 mg PG) was 13.5%. The F ([2]; Oral, Group 7 Enterically Coated tablet: 3 mg peptide, 150 mg Na CDC, 300 mg PG) was 7.53%, the F ([2]; Oral, Group 8 Enterically Coated tablet: 3 mg peptide, 150 mg Na CDC, 150 mg PG) was 6.62% and the F ([2]; Oral, Group 9 Enterically Coated tablet: 1 mg peptide, 100 mg Na CDC, 200 mg PG) was > 4% and 4.2%. The F [3] was “significantly higher absolute bioavailability via ID route than semaglutide”, the half-life [3] was 10.4 h and the AUC ([3]; iv, 0.01 mg/kg) was 1590 ng·h/mL. The Cmax ([3]; iv, 0.01 mg/kg) was 264 ng/mL, the F ([3]; iv, 0.01 mg/kg) was 100% and the half-life ([3]; iv, 0.01 mg/kg) was 17 h. The F ([4]; 10% Carbopol 71G Mucoadhesive polymer + 25% pH 5.5 EC) was 0.393%, the F ([4]; 10% Carbopol 71G Mucoadhesive polymer + 25% pH 7.0 EC) was 0.582% and the F ([4]; 10% Polycarbophill AA Mucoadhesive polymer + 25% pH 5.5 EC) was 0.124%. The F ([4]; 10% Polycarbophill AA Mucoadhesive polymer + 25% pH 7.0 EC) was 0.572%, the F ([4]; + 10% Eudragit(RL + RS) + 25% pH 5.5 EC) was 0.537% and the F ([4]; pH 5.5 EC) was 1.30%. It also gave an F ([4]; pH 7.0 EC) of 2.54%, a solubility (physchem; pH 5, aqueous buffer, thermodynamic from solid) of less than 10 mg/mL and a solubility (physchem; pH 5.5) of less than 10 mg/mL. For the same molecule, the solubility (physchem; pH 6, aqueous buffer, thermodynamic from solid) was 75 mg/mL (≈ 17.2 mM), the solubility (physchem; pH 7) was 150 mg/mL (≈ 34.5 mM) and the solubility (physchem; pH 7.5) was 180 mg/mL (≈ 41.4 mM). The “solubility as a function of pH (in words)” value (physchem; pH 7.5) was “increased in the range of pH 7.0 to 9.0”, the solubility (physchem; pH 8) was 200 mg/mL (≈ 45.9 mM) and the solubility (physchem; pH 9) was greater than 200 mg/mL. For the same molecule, the bioavailability ([5]; 3 mg/dog, freshly prepared enterically coated no Tris tablet) was 5.2%, the bioavailability ([5]; 3 mg/dog, freshly prepared enterically coated tablets with Tris) was 12.4% and the bioavailability ([5]; stressed enterically coated tablet with Tris) was 3.8%. The bioavailability ([5]; stressed enterically coated tablet without Tris) was 9.6%.

For `CC[C@H](C)[C@H](NC(=O)C(C)(Cc1ccccc1)NC(=O)[C@H](CCC(=O)O)NC(=O)[C@H](CCCCNC(=O)COCCOCCNC(=O)COCCOCCNC(=O)CC[C@H](NC(=O)CCCCCCCCCCCCCCCCC(=O)O)C(=O)O)NC(=O)[C@H](C)NC(=O)[C@H](C)NC(=O)[C@H](CCC(=O)O)NC(=O)CNC(=O)[C@H](CCC(=O)O)NC(=O)[C@H](CC(C)C)NC(=O)C(C)(Cc1ccccc1)NC(=O)[C@H](CO)NC(=O)C(C)(CO)NC(=O)[C@@H](NC(=O)[C@H](CC(=O)O)NC(=O)[C@H](CO)NC(=O)[C@@H](NC(=O)C(C)(Cc1ccccc1)NC(=O)[C@H](CO)NC(=O)CNC(=O)[C@H](CCC(=O)O)NC(=O)C(C)(C)NC(=O)[C@@H](N)Cc1c[nH]cn1)[C@@H](C)O)C(C)C)C(=O)N[C@@H](C)C(=O)NC(C)(Cc1ccccc1)C(=O)N[C@H](C(=O)N[C@H](C(=O)NC(C)(CCCCN)C(=O)NCC(=O)NCC(N)=O)C(C)C)C(C)C` (stereo partly drawn) [SEQ ID NO: 3, Free-H-[AIB]-EGS-[αMePhe]-TSDV-[αMeSer]-S-[αMePhe]-LEGEAAK[(PEG2)2-γE-Stearate]-E-[αMePhe]-IA-[αMePhe]-VV-[αMeLys]-GG-amide], the bioavailability [6, 7] was 1.14%, the bioavailability [6, 8] was 3.95% and the bioavailability [6, 9] was 0.19%. It also gave an F ([6]; IV, 0.01 mg/kg, 0.1 mg/mL peptide in PBS pH 8.0) of 100%, an F ([6]; SC, 0.01 mg/kg, 0.1 mg/mL peptide in PBS pH 8.0) of 105.84% and an AUC(0-t) [6, 10] of 1650 ng·h/mL. The Cmax [6, 10] was 140 ng/mL, the Tmax [6, 10] was 0.5 h and the AUC(0-t) [6, 7] was 1390 ng·h/mL. The Cmax [6, 7] was 60.7 ng/mL, the Tmax [6, 7] was 0.5 h and the AUC(0-t) [6, 8] was 4840 ng·h/mL. For the same molecule, the Cmax [6, 8] was 386 ng/mL, the AUC(0-t) [6, 9] was 228 ng·h/mL and the Cmax [6, 9] was 7.1 ng/mL. It also gave a Tmax [6, 9] of 4 h, an AUC(0-t) [6, 11] of 1750 ng·h/mL and a Cmax [6, 11] of 45.1 ng/mL.
